According to PubChem BioAssay AID1259411 (Chemical Carcinogenesis Research Information System (CCRIS), 2018):
The source made the active and inactive calls. No rule for the calls is given here.

Tested on: rodent carcinogenicity bioassays, tumor incidence
Assay: CCRIS carcinogenicity studies
Conditions: Species: RAT
How it was run: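 NCI-built, expert-reviewed records of carcinogenicity and related test outcomes (mutagenicity, tumor promotion/inhibition) compiled from published and report sources, historical span 1985-2011, not updated.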

`C=CCl` was tested, and the carcinogen call (Strain/Sex: SPRAGUE-DAWLEY/FEMALE, Route: INHALATION, Dose: 0, 6000, 10000 PPM IN AIR 4 HR/D 1 D/WK FOR 25 WK (STUDY DURATION: LIFETIME), Dose: 0, 6000, 10000 PPM IN AIR 4 HR/D 1 D/WK FOR 25 WK (STUDY DURATION: LIFETIME), Tumor Site: Type of Lesion: [BRAIN WAS ONLY SITE EVALUATED]) was “inactive; negative”, the carcinogen call (Strain/Sex: SPRAGUE-DAWLEY/FEMALE, Route: INHALATION, Dose: 0, 6000, 10000 PPM IN AIR 4 HR/D 5 D/WK FOR 5 WK (STUDY DURATION: LIFETIME), Dose: 0, 6000, 10000 PPM IN AIR 4 HR/D 5 D/WK FOR 5 WK (STUDY DURATION: LIFETIME), Tumor Site: Type of Lesion: [BRAIN WAS ONLY SITE EVALUATED]) was “inactive; negative” and the carcinogen call (Strain/Sex: SPRAGUE-DAWLEY/MALE,FEMALE, Route: GAVAGE, Dose: 0, 3.33, 16.65, 50.0 MG/KG IN OLIVE OIL 1/D, 4-5 D/WK FOR 52 WK (STUDY DURATION: 136 WK), Dose: 0, 3.33, 16.65, 50.0 MG/KG IN OLIVE OIL 1/D, 4-5 D/WK FOR 52 WK (STUDY DURATION: 136 WK), Tumor Site: Type of Lesion: LIVER: ANGIOSARCOMA) was “active; positive”. The carcinogen call (Strain/Sex: SPRAGUE-DAWLEY/MALE,FEMALE, Route: INHALATION, Dose: 0, 50-10000 PPM 4 HR/D, 5 D/WK FOR 52 WK (STUDY DURATION: 135 WK), Tumor Site: Type of Lesion: LIVER: ANGIOSARCOMA, NERVOUS SYSTEM: NEUROBLASTOMA, EAR (ZYMBAL GLAND): CARCINOMA, KIDNEY: NEPHROBLASTOMA, Tumor Site: Type of Lesion: LIVER: ANGIOSARCOMA, NERVOUS SYSTEM: NEUROBLASTOMA, EAR (ZYMBAL GLAND): CARCINOMA, KIDNEY: NEPHROBLASTOMA) was “active; positive”, the carcinogen call (Strain/Sex: SPRAGUE-DAWLEY/MALE, Route: GAVAGE, Dose: 0, 0.03, 0.3, 1, 3.33, 16.65, 50 MG/KG BW IN OLIVE OIL 1/D 4-5 D/WK FOR 52-59 WK (STUDY DURATION: LIFETIME), Dose: 0, 0.03, 0.3, 1, 3.33, 16.65, 50 MG/KG BW IN OLIVE OIL 1/D 4-5 D/WK FOR 52-59 WK (STUDY DURATION: LIFETIME), Tumor Site: Type of Lesion: [BRAIN WAS ONLY SITE EVALUATED]) was “inactive; negative” and the carcinogen call (Strain/Sex: SPRAGUE-DAWLEY/MALE, Route: INHALATION, Dose: 0, 600 PPM 4 HR/D, 5 D/WK FOR 1 YR (STUDY DURATION: 2.5 YR), Tumor Site: Type of Lesion: LIVER: HEPATOCELLULAR CARCINOMA, ANGIOSARCOMA) was “active; positive”. The carcinogen call (Strain/Sex: SPRAGUE-DAWLEY/MALE, Route: INHALATION, Dose: 0, 2500 PPM 4 HR/D 5 D/WK FOR 7 WK THEN 7 HR/D 5 D/WK FOR 8 WK ADMINISTERED TO RAT EMBRYOS BEGINNING ON 12TH DAY OF GEST, Tumor Site: Type of Lesion: LIVER: HEPATOMA, ANGIOSARCOMA, BRAIN: NEUROBLASTOMA) was “active; positive”, the carcinogen call (Strain/Sex: SPRAGUE-DAWLEY/MALE, Route: INHALATION, Dose: 0, 2500 PPM 4 HR/D 5 D/WK FOR 7 WK THEN 7 HR/D 5 D/WK FOR 69 WK ADMINISTERED TO RAT EMBRYOS BEGINNING ON 12TH DAY OF GES, Tumor Site: Type of Lesion: BRAIN: NEUROBLASTOMA, LIVER, HEPATOCARCINOMA, ANGIOSARCOMA, Tumor Site: Type of Lesion: BRAIN: NEUROBLASTOMA, LIVER, HEPATOCARCINOMA, ANGIOSARCOMA) was “active; positive” and the carcinogen call (Strain/Sex: SPRAGUE-DAWLEY/MALE, Route: INHALATION, Dose: 0, 6000, 10000 PPM IN AIR 1 HR/D 4 D/WK FOR 25 WK (STUDY DURATION: LIFETIME), Dose: 0, 6000, 10000 PPM IN AIR 1 HR/D 4 D/WK FOR 25 WK (STUDY DURATION: LIFETIME), Tumor Site: Type of Lesion: [BRAIN WAS ONLY SITE EVALUATED]) was “inactive; negative”. For the same molecule, the carcinogen call (Strain/Sex: SPRAGUE-DAWLEY/MALE, Route: INHALATION, Dose: 0, 6000, 10000 PPM IN AIR 4 HR/D 1 D/WK FOR 25 WK (STUDY DURATION: LIFETIME), Dose: 0, 6000, 10000 PPM IN AIR 4 HR/D 1 D/WK FOR 25 WK (STUDY DURATION: LIFETIME), Tumor Site: Type of Lesion: [BRAIN WAS ONLY SITE EVALUATED]) was “inactive; negative”, the carcinogen call (Strain/Sex: SPRAGUE-DAWLEY/MALE, Route: INHALATION, Dose: 0, 6000, 10000 PPM IN AIR 4 HR/D 5 D/WK FOR 5 WK (STUDY DURATION: LIFETIME), Dose: 0, 6000, 10000 PPM IN AIR 4 HR/D 5 D/WK FOR 5 WK (STUDY DURATION: LIFETIME), Tumor Site: Type of Lesion: [BRAIN WAS ONLY SITE EVALUATED]) was “inactive; negative” and the carcinogen call (Strain/Sex: SPRAGUE-DAWLEY, Route: ORAL, Tumor Site: Type of Lesion: LIVER) was “active; positive”. For the same molecule, the carcinogen call (Strain/Sex: WISTAR/FEMALE, Route: ORAL, Dose: 0, 0.014, 0.13, 1.3 MG/KG/BW/D IN DIET FOR DURATION OF STUDY (STUDY DURATION: 150 WK), Dose: 0, 0.014, 0.13, 1.3 MG/KG/BW/D IN DIET FOR DURATION OF STUDY (STUDY DURATION: 150 WK), Tumor Site: Type of Lesion: LIVER: NEOPLASTIC NODULES) was “active; positive”, the carcinogen call (Strain/Sex: WISTAR/MALE, Route: INHALATION, Dose: 0, 1, 50, 250, 500, 2500, 6000, 10000 PPM 4 HR/D, 5 D/WK FOR 52 WK (STUDY DURATION: 134-165 WK), Dose: 0, 1, 50, 250, 500, 2500, 6000, 10000 PPM 4 HR/D, 5 D/WK FOR 52 WK (STUDY DURATION: 134-165 WK), Tumor Site: Type of Lesion: LIVER: ANGIOSARCOMA, NERVOUS SYSTEM: NEUROBLASTOMA) was “active; positive” and the carcinogen call (Strain/Sex: WISTAR/MALE, Route: ORAL, Dose: 0, 0.014, 0.13, 1.3 MG/KG/BW/D IN DIET FOR DURATION OF STUDY (STUDY DURATION: 149 WK), Dose: 0, 0.014, 0.13, 1.3 MG/KG/BW/D IN DIET FOR DURATION OF STUDY (STUDY DURATION: 149 WK), Tumor Site: Type of Lesion: LIVER: HEPATOCELLULAR CARCINOMA) was “active; positive”.
